Results published in US6737383B1, “Herbicidal oxadiazolidines” (priority 1999, dated 2004).

How the values were obtained:
velvetleaf = assay: Test B pre/postemergence velvetleaf; format: in vivo, Abutilon theophrasti
How it was run: (§1)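 Herbicidal effect was estimated by eye on a ten-point control scale after plants spent twelve to sixteen days in a greenhouse following soil or foliar treatment. Foliar sprays targeted plants at one to four leaves; all doses were formulated in a non-phytotoxic solvent with surfactant.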

corn = assay: Test B pre/postemergence corn; format: in vivo, Zea mays
How it was run: as §1

purple nutsedge = assay: Test B pre/postemergence purple nutsedge; format: in vivo, Cyperus rotundus
How it was run: as §1

crabgrass = assay: Test B pre/postemergence crabgrass; format: in vivo, Digitaria sanguinalis
How it was run: as §1

cocklebur = assay: Test B pre/postemergence cocklebur; format: in vivo, Xanthium strumarium
How it was run: as §1

bedstraw = assay: Test B pre/postemergence bedstraw; format: in vivo, Galium aparine
How it was run: as §1

wheat = assay: Test B pre/postemergence wheat; format: in vivo, Triticum aestivum
How it was run: as §1

rape = assay: Test B pre/postemergence rape; format: in vivo, Brassica napus
How it was run: as §1

duck salad = assay: Test B flood test duck salad; format: in vivo, Heteranthera limosa; details: Rate 125 g/ha; Postemergence section (flood test species); scale 0 to 10, 0 no effect, 10 complete control
How it was run: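 Read-out is a visual response score from 0 (no effect) to 10 (complete control), assigned by comparison with untreated controls. Treatment was applied at the 2-leaf stage, and plants stayed in the greenhouse for twelve to sixteen days before scoring.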

sugar beet = assay: Test B pre/postemergence sugar beet; format: in vivo, Beta vulgaris
How it was run: as §1

surinam grass = assay: Test B pre/postemergence surinam grass; format: in vivo, Brachiaria decumbens
How it was run: as §1

giant foxtail = assay: Test B pre/postemergence giant foxtail; format: in vivo, Setaria faberii
How it was run: as §1

soybean = assay: Test B pre/postemergence soybean; format: in vivo, Glycine max
How it was run: as §1

blackgrass = assay: Test B pre/postemergence blackgrass; format: in vivo, Alopecurus myosuroides
How it was run: as §1

[1] = Postemergence, Rate 62 g/ha, scale 0 to 10, 0 is no effect, 10 is complete control
[2] = Postemergence, Rate 250 g/ha, scale 0 to 10, 0 no effect, 10 complete control
[3] = Preemergence, Rate 62 g/ha, scale 0 to 10, 0 is no effect, 10 is complete control
[4] = Preemergence, Rate 125 g/ha, scale 0 to 10 (0 no effect, 10 complete control)
[5] = Preemergence, Rate 250 g/ha, scale of 0 to 10 where 0 is no effect and 10 is complete control
[6] = Preemergence, Rate 500 g/ha, scale 0 (no effect) to 10 (complete control)
[7] = Rate 125 g/ha, Postemergence, scale 0 to 10, 0 no effect, 10 complete control
[8] = Rate 500 g/ha, Postemergence, 0 to 10 scale (0 no effect, 10 complete control)

## Cc1ccc(N(C(=O)n2oc(=O)n(-c3ccccc3C)c2=O)C(C)C)cc1 [Compound 40]
velvetleaf; [1]
  Velvetleaf plant response rating: 0
velvetleaf; [2]
  Velvetleaf plant response rating: 0
velvetleaf; [3]
  Plant response rating, Velvetleaf: 0
velvetleaf; [4]
  Plant response rating, Velvetleaf: 0
velvetleaf; [5]
  Plant response rating, Velvetleaf: 0
velvetleaf; [6]
  Velvetleaf plant response rating: 0
velvetleaf; [7]
  Velvetleaf plant response rating: 0
corn; [1]
  Corn plant response rating: 0
corn; [2]
  Corn plant response rating: 0
corn; [3]
  Plant response rating, Corn: 0
corn; [4]
  Plant response rating, Corn: 0
corn; [5]
  Plant response rating, Corn: 0
corn; [6]
  Corn plant response rating: 0
corn; [7]
  Corn plant response rating: 0
corn; [8]
  Corn plant response rating: 0
Purple nutsedge; [1]
  Nutsedge plant response rating: 0
Purple nutsedge; [2]
  Nutsedge plant response rating: 0
Purple nutsedge; [3]
  Plant response rating, Nutsedge: 0
Purple nutsedge; [4]
  Plant response rating, Nutsedge: 0
Purple nutsedge; [5]
  Plant response rating, Nutsedge: 0
Purple nutsedge; [6]
  Nutsedge plant response rating: 0
Purple nutsedge; [7]
  Nutsedge plant response rating: 0
Purple nutsedge; [8]
  Nutsedge plant response rating: 0
crabgrass; [1]
  Crabgrass plant response rating: 0
crabgrass; [2]
  Crabgrass plant response rating: 6
crabgrass; [3]
  Plant response rating, Crabgrass: 2
crabgrass; [4]
  Plant response rating, Crabgrass: 4
crabgrass; [5]
  Plant response rating, Crabgrass: 7
crabgrass; [6]
  Crabgrass plant response rating: 10
crabgrass; [7]
  Crabgrass plant response rating: 1
crabgrass; [8]
  Crabgrass plant response rating: 7
cocklebur; [1]
  Cocklebur plant response rating: 0
cocklebur; [2]
  Cocklebur plant response rating: 0
cocklebur; [3]
  Plant response rating, Cocklebur: 0
cocklebur; [4]
  Plant response rating, Cocklebur: 0
cocklebur; [5]
  Plant response rating, Cocklebur: 0
cocklebur; [6]
  Cocklebur plant response rating: 0
cocklebur; [7]
  Cocklebur plant response rating: 0
cocklebur; [8]
  Cocklebur plant response rating: 0
bedstraw; [1]
  Bedstraw plant response rating: 0
bedstraw; [3]
  Plant response rating, Bedstraw: 0
bedstraw; [4]
  Plant response rating, Bedstraw: 0
bedstraw; [5]
  Plant response rating, Bedstraw: 0
bedstraw; [6]
  Bedstraw plant response rating: 0
bedstraw; [8]
  Bedstraw plant response rating: 2
wheat; [1]
  Wheat plant response rating: 0
wheat; [2]
  Wheat plant response rating: 0
wheat; [3]
  Plant response rating, Wheat: 0
wheat; [4]
  Plant response rating, Wheat: 0
wheat; [5]
  Plant response rating, Wheat: 0
wheat; [6]
  Wheat plant response rating: 0
wheat; [7]
  Wheat plant response rating: 0
rape; [1]
  Rape plant response rating: 0
rape; [2]
  Rape plant response rating: 0
rape; [3]
  Plant response rating, Rape: 0
rape; [4]
  Plant response rating, Rape: 0
rape; [5]
  Plant response rating, Rape: 0
rape; [6]
  Rape plant response rating: 0
rape; [7]
  Rape plant response rating: 0
rape; [8]
  Rape plant response rating: 0
Duck salad
  Ducksalad plant response rating: 0
Sugar beet; [1]
  Sugarbeets plant response rating: 0
Sugar beet; [2]
  Sugarbeets plant response rating: 2
Sugar beet; [3]
  Plant response rating, Sugarbeets: 0
Sugar beet; [4]
  Plant response rating, Sugarbeets: 0
Sugar beet; [5]
  Plant response rating, Sugarbeets: 0
Sugar beet; [6]
  Sugarbeets plant response rating: 6
Sugar beet; [7]
  Sugarbeets plant response rating: 0
Surinam grass; [1]
  B. signalgrass plant response rating: 0
Surinam grass; [2]
  B. signalgrass plant response rating: 0
Surinam grass; [3]
  Plant response rating, B. signalgrass: 0
Surinam grass; [4]
  Plant response rating, B. signalgrass: 0
Surinam grass; [5]
  Plant response rating, B. signalgrass: 5
Surinam grass; [6]
  B. signalgrass plant response rating: 7
Surinam grass; [7]
  B. signalgrass plant response rating: 0
Surinam grass; [8]
  B. signalgrass plant response rating: 0
Giant foxtail; [1]
  Giant foxtail plant response rating: 0
Giant foxtail; [2]
  Giant foxtail plant response rating: 1
Giant foxtail; [3]
  Plant response rating, Giant foxtail: 9
Giant foxtail; [4]
  Plant response rating, Giant foxtail: 9
Giant foxtail; [5]
  Plant response rating, Giant foxtail: 10
Giant foxtail; [6]
  Giant foxtail plant response rating: 10
Giant foxtail; [7]
  Giant foxtail plant response rating: 0
Giant foxtail; [8]
  Giant foxtail plant response rating: 3
soybean; [1]
  Soybean plant response rating: 3
soybean; [2]
  Soybean plant response rating: 4
soybean; [3]
  Plant response rating, Soybean: 0
soybean; [4]
  Plant response rating, Soybean: 0
soybean; [5]
  Plant response rating, Soybean: 0
soybean; [6]
  Soybean plant response rating: 0
soybean; [7]
  Soybean plant response rating: 3
blackgrass; [1]
  Blackgrass plant response rating: 0
blackgrass; [2]
  Blackgrass plant response rating: 4
blackgrass; [3]
  Plant response rating, Blackgrass: 0
blackgrass; [4]
  Plant response rating, Blackgrass: 0
blackgrass; [5]
  Plant response rating, Blackgrass: 1
blackgrass; [6]
  Blackgrass plant response rating: 6
blackgrass; [7]
  Blackgrass plant response rating: 0
blackgrass; [8]
  Blackgrass plant response rating: 7
